{
  "source": "ChEMBL document CHEMBL5233239",
  "about": "“Matrix metalloproteinase-9 (MMP-9) and its inhibitors in cancer: A minireview” (Eur J Med Chem, 2020)",
  "key": {"Interstitial collagenase [1]": {"biological_target": "T1, Interstitial collagenase (Homo sapiens, UniProt P03956)", "T1 sequence (P03956 whole entry)": "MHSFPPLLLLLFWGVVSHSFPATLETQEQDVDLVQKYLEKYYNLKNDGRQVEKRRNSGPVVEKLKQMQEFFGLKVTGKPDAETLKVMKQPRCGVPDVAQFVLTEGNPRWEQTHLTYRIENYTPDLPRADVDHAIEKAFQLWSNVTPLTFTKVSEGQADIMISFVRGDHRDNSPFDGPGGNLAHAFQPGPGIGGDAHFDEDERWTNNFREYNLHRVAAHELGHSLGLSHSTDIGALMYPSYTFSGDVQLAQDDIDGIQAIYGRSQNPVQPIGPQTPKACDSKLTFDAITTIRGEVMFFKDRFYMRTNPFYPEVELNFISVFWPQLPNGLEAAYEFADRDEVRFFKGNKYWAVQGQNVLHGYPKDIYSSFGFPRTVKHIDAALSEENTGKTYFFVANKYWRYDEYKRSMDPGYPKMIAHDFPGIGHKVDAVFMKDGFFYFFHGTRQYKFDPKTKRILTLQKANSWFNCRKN", "assay": "Inhibition of recombinant human MMP1 expressed in Escherichia coli BL21 (DE3) using Mca-Pro-Leu-Gly-Leu-Dpa-Ala-Arg-NH2 as substrate incubated for 20 to 30 mins by fluorescence assay"}, "Stromelysin-1 [2]": {"biological_target": "T2, Stromelysin-1 (Homo sapiens, UniProt P08254)", "T2 sequence (P08254 whole entry)": "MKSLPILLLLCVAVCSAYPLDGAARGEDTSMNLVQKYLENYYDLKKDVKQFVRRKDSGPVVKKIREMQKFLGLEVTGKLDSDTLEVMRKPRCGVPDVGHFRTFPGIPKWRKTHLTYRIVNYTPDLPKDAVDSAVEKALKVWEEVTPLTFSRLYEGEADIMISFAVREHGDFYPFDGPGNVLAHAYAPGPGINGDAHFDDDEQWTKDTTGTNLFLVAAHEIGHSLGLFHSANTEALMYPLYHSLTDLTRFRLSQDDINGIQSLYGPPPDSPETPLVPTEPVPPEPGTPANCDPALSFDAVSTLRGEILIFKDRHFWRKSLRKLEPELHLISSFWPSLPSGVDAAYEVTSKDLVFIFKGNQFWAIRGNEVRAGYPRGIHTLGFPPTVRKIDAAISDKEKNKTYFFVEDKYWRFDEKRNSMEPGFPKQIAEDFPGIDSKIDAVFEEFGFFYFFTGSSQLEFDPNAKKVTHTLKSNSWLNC", "assay": "Inhibition of recombinant human MMP3 expressed in Escherichia coli BL21 (DE3) using [3H]transferrin as substrate incubated for 3 hrs by scintillation counter analysis"}, "Matrilysin [3]": {"biological_target": "T3, Matrilysin (Homo sapiens, UniProt P09237)", "T3 sequence (P09237 whole entry)": "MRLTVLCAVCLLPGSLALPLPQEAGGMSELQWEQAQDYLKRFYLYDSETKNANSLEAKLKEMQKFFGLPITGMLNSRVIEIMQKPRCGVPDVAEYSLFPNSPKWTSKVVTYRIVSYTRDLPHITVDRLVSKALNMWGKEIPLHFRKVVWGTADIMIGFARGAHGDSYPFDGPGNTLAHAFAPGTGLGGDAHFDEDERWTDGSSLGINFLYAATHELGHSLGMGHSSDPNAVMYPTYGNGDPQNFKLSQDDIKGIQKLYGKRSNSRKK", "assay": "Inhibition of recombinant human MMP7 using […] as substrate incubated for 20 to 30 mins by fluorescence microplate reader analysis"}, "[4]": {"biological_target": "T4, Matrix metalloproteinase-9 (Homo sapiens, UniProt P14780)", "T4 sequence (P14780 whole entry)": "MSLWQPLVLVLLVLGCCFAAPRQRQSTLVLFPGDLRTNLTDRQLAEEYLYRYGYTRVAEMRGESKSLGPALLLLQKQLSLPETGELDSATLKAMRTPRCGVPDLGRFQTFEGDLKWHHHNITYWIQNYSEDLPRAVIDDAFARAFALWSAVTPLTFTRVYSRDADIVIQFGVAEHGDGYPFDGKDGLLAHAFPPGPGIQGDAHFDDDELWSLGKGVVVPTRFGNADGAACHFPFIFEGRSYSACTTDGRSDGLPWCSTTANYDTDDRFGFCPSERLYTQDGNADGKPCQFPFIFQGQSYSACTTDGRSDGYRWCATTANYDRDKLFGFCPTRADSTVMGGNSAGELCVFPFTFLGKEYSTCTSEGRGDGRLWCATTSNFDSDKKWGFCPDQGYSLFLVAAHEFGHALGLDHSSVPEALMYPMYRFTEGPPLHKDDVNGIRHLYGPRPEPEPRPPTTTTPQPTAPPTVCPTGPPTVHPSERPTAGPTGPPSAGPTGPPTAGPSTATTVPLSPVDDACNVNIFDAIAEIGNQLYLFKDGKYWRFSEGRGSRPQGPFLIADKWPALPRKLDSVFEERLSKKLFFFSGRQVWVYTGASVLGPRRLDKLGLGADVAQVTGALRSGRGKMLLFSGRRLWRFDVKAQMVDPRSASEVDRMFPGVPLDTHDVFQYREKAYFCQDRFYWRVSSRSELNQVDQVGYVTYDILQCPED", "assay": "Inhibition of recombinant human MMP9 using […] as substrate incubated for 20 to 30 mins by fluorescence microplate reader analysis"}, "Collagenase 3 [5]": {"biological_target": "T5, Collagenase 3 (Homo sapiens, UniProt P45452)", "assay": "Inhibition of recombinant human MMP13 using […] as substrate incubated for 20 to 30 mins by fluorescence microplate reader analysis"}, "[6]": {"biological_target": "T4, Matrix metalloproteinase-9", "assay": "Inhibition of MMP-9 (unknown origin)"}, "Interstitial collagenase [7]": {"biological_target": "T1, Interstitial collagenase", "assay": "Inhibition of MMP-1 (unknown origin)"}, "Collagenase 3 [8]": {"biological_target": "T5, Collagenase 3", "description": "Inhibition of MMP-13 (unknown origin)"}, "[9]": {"biological_target": "Disintegrin and metalloproteinase domain-containing protein 17 (Homo sapiens, UniProt P78536)", "sequence (P78536 whole entry, the tested form may be a part)": "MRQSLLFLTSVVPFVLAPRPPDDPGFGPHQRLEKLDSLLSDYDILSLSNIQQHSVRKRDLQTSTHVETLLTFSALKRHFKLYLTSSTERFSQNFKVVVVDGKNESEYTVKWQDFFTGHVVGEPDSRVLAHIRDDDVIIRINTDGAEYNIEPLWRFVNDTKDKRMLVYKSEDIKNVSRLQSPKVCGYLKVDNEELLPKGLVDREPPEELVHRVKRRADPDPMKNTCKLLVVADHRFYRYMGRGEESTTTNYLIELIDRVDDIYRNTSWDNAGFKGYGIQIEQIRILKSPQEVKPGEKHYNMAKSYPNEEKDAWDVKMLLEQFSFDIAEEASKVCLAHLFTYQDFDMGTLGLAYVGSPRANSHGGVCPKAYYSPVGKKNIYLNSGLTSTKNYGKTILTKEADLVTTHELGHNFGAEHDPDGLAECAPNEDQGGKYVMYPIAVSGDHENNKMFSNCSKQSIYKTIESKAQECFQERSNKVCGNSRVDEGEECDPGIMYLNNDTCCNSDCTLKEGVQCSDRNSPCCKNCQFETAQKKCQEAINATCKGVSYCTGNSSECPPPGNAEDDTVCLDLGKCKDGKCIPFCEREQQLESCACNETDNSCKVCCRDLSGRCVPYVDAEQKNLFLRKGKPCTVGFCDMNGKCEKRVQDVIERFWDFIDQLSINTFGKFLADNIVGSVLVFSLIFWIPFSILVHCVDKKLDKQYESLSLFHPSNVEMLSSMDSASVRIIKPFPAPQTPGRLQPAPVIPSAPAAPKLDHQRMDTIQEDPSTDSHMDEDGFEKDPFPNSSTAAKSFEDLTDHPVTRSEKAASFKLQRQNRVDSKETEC", "assay": "Inhibition of TACE (unknown origin)"}, "[10]": {"biological_target": "T6, 72 kDa type IV collagenase (Homo sapiens, UniProt P08253)", "T6 sequence (P08253 whole entry)": "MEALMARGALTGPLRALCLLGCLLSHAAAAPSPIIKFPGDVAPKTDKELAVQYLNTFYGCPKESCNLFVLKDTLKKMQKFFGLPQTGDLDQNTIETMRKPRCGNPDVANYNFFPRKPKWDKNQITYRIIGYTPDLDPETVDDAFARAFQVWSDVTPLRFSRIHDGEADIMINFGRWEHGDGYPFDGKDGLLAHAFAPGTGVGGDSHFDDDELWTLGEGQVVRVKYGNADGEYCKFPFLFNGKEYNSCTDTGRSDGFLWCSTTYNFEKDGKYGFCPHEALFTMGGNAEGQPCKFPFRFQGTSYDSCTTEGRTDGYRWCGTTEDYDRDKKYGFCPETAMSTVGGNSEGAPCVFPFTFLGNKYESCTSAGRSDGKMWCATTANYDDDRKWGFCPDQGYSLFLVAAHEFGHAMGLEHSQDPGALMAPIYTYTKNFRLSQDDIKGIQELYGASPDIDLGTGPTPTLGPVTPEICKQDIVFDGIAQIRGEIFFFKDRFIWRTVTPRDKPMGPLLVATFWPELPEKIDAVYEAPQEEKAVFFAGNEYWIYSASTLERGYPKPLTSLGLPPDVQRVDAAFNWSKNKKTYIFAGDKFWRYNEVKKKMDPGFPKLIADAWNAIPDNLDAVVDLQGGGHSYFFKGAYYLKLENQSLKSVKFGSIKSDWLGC", "assay": "Inhibition of recombinant human full length MMP2 using […] as substrate incubated for 20 to 30 mins by fluorescence microplate reader analysis"}, "Neutrophil collagenase [11]": {"biological_target": "T7, Neutrophil collagenase (Homo sapiens, UniProt P22894)", "T7 sequence (P22894 whole entry)": "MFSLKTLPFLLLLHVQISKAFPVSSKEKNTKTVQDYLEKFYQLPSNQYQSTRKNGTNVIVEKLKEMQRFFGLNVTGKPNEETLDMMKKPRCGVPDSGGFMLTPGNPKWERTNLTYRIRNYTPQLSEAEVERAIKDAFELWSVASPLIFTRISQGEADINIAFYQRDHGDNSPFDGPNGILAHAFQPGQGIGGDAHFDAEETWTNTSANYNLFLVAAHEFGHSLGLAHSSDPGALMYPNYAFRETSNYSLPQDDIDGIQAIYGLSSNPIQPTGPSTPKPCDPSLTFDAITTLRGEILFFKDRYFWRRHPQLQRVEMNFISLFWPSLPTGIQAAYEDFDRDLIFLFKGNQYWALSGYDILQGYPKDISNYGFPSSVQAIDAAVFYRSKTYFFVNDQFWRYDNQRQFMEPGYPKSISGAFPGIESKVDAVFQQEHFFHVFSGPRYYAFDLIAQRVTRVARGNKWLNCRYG", "assay": "Inhibition of recombinant human MMP8 using […] as substrate incubated for 20 to 30 mins by fluorescence microplate reader analysis"}, "Neutrophil collagenase [12]": {"biological_target": "T7, Neutrophil collagenase", "assay": "Inhibition of MMP-8 (unknown origin)"}, "Matrilysin [13]": {"biological_target": "T3, Matrilysin", "assay": "Inhibition of MMP-7 (unknown origin)"}, "Interstitial collagenase [14]": {"biological_target": "T1, Interstitial collagenase", "assay": "Inhibition of human MMP1 using Dnp-Pro-Cha-Gly-Cys(ME)-His-Ala-Lys(Nma)-NH2 as substrate preincubated for 0.5 hrs followed by substrate addition and measured after 6 hrs by fluorimeter analysis"}, "[15]": {"biological_target": "T6, 72 kDa type IV collagenase", "assay": "Inhibition of human MMP2 using Dnp-Pro-Cha-Gly-Cys(ME)-His-Ala-Lys(Nma)-NH2 as substrate preincubated for 0.5 hrs followed by substrate addition and measured after 6 hrs by fluorimeter analysis"}, "Stromelysin-1 [16]": {"biological_target": "T2, Stromelysin-1", "assay": "Inhibition of human MMP3 using (7-methoxycoumarine-4-yl)-Arg-Pro-Lys-Pro-Tyr-Ala-Nva-Trp-Met-Lys(Dnp)-NH2 as substrate preincubated for 0.5 hrs followed by substrate addition and measured after 6 hrs by fluorimeter analysis"}, "[17]": {"biological_target": "T4, Matrix metalloproteinase-9", "assay": "Inhibition of human MMP9 using Dnp-Pro-Cha-Gly-Cys(ME)-His-Ala-Lys(Nma)-NH2 as substrate preincubated for 0.5 hrs followed by substrate addition and measured after 6 hrs by fluorimeter analysis"}, "Collagenase 3 [18]": {"biological_target": "T5, Collagenase 3", "assay": "Inhibition of human MMP13 using Dnp-Pro-Cha-Gly-Cys(ME)-His-Ala-Lys(Nma)-NH2 as substrate preincubated for 0.5 hrs followed by substrate addition and measured after 6 hrs by fluorimeter analysis"}, "[19]": {"biological_target": "T4, Matrix metalloproteinase-9", "assay": "Inhibition of MMP-9 (unknown origin) by fluorimetric assay"}, "[20]": {"biological_target": "T6, 72 kDa type IV collagenase", "assay": "Inhibition of MMP-2 (unknown origin) by fluorimetric assay"}, "Interstitial collagenase [21]": {"biological_target": "T1, Interstitial collagenase", "assay": "Inhibition of MMP-1 (unknown origin) by fluorimetric assay"}, "[22]": {"biological_target": "T6, 72 kDa type IV collagenase", "assay": "Inhibition of MMP-2 (unknown origin) using Ac-PLG-[2-mercapto-4-methylpentanoyl]-LG-OC2H5) as substrate measured upto 20 mins by microplate reader analysis"}, "[23]": {"biological_target": "T4, Matrix metalloproteinase-9", "assay": "Inhibition of MMP-9 (unknown origin) using Ac-PLG-[2-mercapto-4-methylpentanoyl]-LG-OC2H5) as substrate measured upto 20 mins by microplate reader analysis"}},
  "data": [
    {"smiles": "COc1ccc(S(=O)(=O)N2CCN(c3cccnc3)CC2C(=O)NO)cc1", "note": "(stereo not given)", "values": [
      {"measurement": "IC50", "setting": "Interstitial collagenase [1]", "result": 0.944, "unit": "µM"},
      {"measurement": "IC50", "setting": "Stromelysin-1 [2]", "result": 0.184, "unit": "µM"},
      {"measurement": "IC50", "setting": "Matrilysin [3]", "result": 27.7, "unit": "µM"},
      {"measurement": "IC50", "setting": "[4]", "result": 0.032, "unit": "µM"},
      {"measurement": "IC50", "setting": "Collagenase 3 [5]", "result": 0.057, "unit": "µM"}
    ]},
    {"smiles": "COc1ccc(S(=O)(=O)N(C)c2c(CN3CCOCC3)cc(C)cc2C(=O)NO)cc1", "values": [
      {"measurement": "IC50", "setting": "[6]", "result": 0.005, "unit": "µM"},
      {"measurement": "IC50", "setting": "Interstitial collagenase [7]", "result": 0.608, "unit": "µM"},
      {"measurement": "IC50", "setting": "Collagenase 3 [8]", "result": 0.014, "unit": "µM"},
      {"measurement": "IC50", "setting": "[9]", "result": 0.174, "unit": "µM"}
    ]},
    {"smiles": "COc1ccc(S(=O)(=O)N(c2c(C)cc(-c3cccc(C(F)(F)F)c3)cc2C(=O)NO)N(C)C)cc1", "values": [
      {"measurement": "IC50", "setting": "[6]", "result": 0.002, "unit": "µM"},
      {"measurement": "IC50", "setting": "Interstitial collagenase [7]", "result": 0.074, "unit": "µM"},
      {"measurement": "IC50", "setting": "Collagenase 3 [8]", "result": 0.039, "unit": "µM"},
      {"measurement": "IC50", "setting": "[9]", "result": 0.633, "unit": "µM"}
    ]},
    {"smiles": "COc1ccc(S(=O)(=O)N(Cc2ccccc2)c2c(C(=O)NO)ccc3c(C(C)(C)C)cccc23)cc1", "values": [
      {"measurement": "IC50", "setting": "[6]", "result": 0.009, "unit": "µM"},
      {"measurement": "IC50", "setting": "Interstitial collagenase [7]", "result": 3.1, "unit": "µM"},
      {"measurement": "IC50", "setting": "Collagenase 3 [8]", "result": 0.016, "unit": "µM"},
      {"measurement": "IC50", "setting": "[9]", "result": 0.401, "unit": "µM"}
    ]},
    {"smiles": "COc1ccc(S(=O)(=O)N2CCCC(C)(C)CC2C(=O)NO)cc1", "note": "(stereo not given)", "values": [
      {"measurement": "IC50", "setting": "Interstitial collagenase [1]", "result": 0.0024, "unit": "µM"},
      {"measurement": "IC50", "setting": "[10]", "result": 0.0014, "unit": "µM"},
      {"measurement": "IC50", "setting": "Stromelysin-1 [2]", "result": 0.0033, "unit": "µM"},
      {"measurement": "IC50", "setting": "Matrilysin [3]", "result": 0.018, "unit": "µM"},
      {"measurement": "IC50", "setting": "Neutrophil collagenase [11]", "result": 0.0019, "unit": "µM"},
      {"measurement": "IC50", "setting": "[4]", "result": 0.0005, "unit": "µM"}
    ]},
    {"smiles": "COc1ccc(S(=O)(=O)N2CN(Cc3ccccc3)C(=O)CC2C(=O)NO)cc1", "note": "(stereo not given)", "values": [
      {"measurement": "IC50", "setting": "[6]", "result": 0.0068, "unit": "µM"},
      {"measurement": "IC50", "setting": "Interstitial collagenase [7]", "result": 0.0222, "unit": "µM"},
      {"measurement": "IC50", "setting": "Neutrophil collagenase [12]", "result": 0.0064, "unit": "µM"},
      {"measurement": "IC50", "setting": "Matrilysin [13]", "result": "> 10", "unit": "µM"}
    ]},
    {"smiles": "O=C(O)[C@H]1[C@H](CN2C(=O)c3ccccc3C2=O)CC[C@@H]1SCc1ccc(-c2ccc(Cl)cc2)cc1", "values": [
      {"measurement": "IC50", "setting": "Interstitial collagenase [14]", "result": 50, "unit": "µM"},
      {"measurement": "IC50", "setting": "[15]", "result": 0.073, "unit": "µM"},
      {"measurement": "IC50", "setting": "Stromelysin-1 [16]", "result": 0.045, "unit": "µM"},
      {"measurement": "IC50", "setting": "[17]", "result": 0.013, "unit": "µM"},
      {"measurement": "IC50", "setting": "Collagenase 3 [18]", "result": 0.129, "unit": "µM"}
    ]},
    {"smiles": "CNC(=O)[C@H](Cc1ccccc1)NC(=O)[C@H](CC(C)C)[C@H](CSc1cccs1)C(=O)NO", "note": "[BATIMASTAT]", "values": [
      {"measurement": "IC50", "setting": "[6]", "result": 0.001, "unit": "µM"}
    ]},
    {"smiles": "CC1(C)NC(=O)N(C[C@H](CS(=O)(=O)c2ccc(-c3ccc(OC(F)(F)F)cc3)cc2)N(O)C=O)C1=O", "values": [
      {"measurement": "IC50", "setting": "[19]", "result": 0.00034, "unit": "µM"},
      {"measurement": "IC50", "setting": "[20]", "result": 0.00086, "unit": "µM"},
      {"measurement": "IC50", "setting": "Interstitial collagenase [21]", "result": 0.082, "unit": "µM"}
    ]},
    {"smiles": "O=C(NO)C1(S(=O)(=O)c2ccc(-n3cc(-c4ccc(-c5cncnc5)cc4)nn3)cc2)CCOCC1", "values": [
      {"measurement": "IC50", "setting": "[22]", "result": 0.0005, "unit": "µM"},
      {"measurement": "IC50", "setting": "[23]", "result": 0.0008, "unit": "µM"}
    ]},
    {"smiles": "CCCCOc1ccc(S(=O)(=O)C2(C(=O)NO)CCN(Cc3ccccc3)CC2)cc1", "values": [
      {"measurement": "IC50", "setting": "[6]", "result": 0.003, "unit": "µM"},
      {"measurement": "IC50", "setting": "Collagenase 3 [8]", "result": 0.016, "unit": "µM"}
    ]}
  ]
}
